The source of these data is patent publication US10377753B2, “Substituted 4-azaindoles and their use as GluN2B receptor modulators” (Janssen Pharmaceutica NV, priority 2015, dated 2019).

cloned human NR1/NR2B ion channels, sequence (Q13224 27-1484, other chains not shown): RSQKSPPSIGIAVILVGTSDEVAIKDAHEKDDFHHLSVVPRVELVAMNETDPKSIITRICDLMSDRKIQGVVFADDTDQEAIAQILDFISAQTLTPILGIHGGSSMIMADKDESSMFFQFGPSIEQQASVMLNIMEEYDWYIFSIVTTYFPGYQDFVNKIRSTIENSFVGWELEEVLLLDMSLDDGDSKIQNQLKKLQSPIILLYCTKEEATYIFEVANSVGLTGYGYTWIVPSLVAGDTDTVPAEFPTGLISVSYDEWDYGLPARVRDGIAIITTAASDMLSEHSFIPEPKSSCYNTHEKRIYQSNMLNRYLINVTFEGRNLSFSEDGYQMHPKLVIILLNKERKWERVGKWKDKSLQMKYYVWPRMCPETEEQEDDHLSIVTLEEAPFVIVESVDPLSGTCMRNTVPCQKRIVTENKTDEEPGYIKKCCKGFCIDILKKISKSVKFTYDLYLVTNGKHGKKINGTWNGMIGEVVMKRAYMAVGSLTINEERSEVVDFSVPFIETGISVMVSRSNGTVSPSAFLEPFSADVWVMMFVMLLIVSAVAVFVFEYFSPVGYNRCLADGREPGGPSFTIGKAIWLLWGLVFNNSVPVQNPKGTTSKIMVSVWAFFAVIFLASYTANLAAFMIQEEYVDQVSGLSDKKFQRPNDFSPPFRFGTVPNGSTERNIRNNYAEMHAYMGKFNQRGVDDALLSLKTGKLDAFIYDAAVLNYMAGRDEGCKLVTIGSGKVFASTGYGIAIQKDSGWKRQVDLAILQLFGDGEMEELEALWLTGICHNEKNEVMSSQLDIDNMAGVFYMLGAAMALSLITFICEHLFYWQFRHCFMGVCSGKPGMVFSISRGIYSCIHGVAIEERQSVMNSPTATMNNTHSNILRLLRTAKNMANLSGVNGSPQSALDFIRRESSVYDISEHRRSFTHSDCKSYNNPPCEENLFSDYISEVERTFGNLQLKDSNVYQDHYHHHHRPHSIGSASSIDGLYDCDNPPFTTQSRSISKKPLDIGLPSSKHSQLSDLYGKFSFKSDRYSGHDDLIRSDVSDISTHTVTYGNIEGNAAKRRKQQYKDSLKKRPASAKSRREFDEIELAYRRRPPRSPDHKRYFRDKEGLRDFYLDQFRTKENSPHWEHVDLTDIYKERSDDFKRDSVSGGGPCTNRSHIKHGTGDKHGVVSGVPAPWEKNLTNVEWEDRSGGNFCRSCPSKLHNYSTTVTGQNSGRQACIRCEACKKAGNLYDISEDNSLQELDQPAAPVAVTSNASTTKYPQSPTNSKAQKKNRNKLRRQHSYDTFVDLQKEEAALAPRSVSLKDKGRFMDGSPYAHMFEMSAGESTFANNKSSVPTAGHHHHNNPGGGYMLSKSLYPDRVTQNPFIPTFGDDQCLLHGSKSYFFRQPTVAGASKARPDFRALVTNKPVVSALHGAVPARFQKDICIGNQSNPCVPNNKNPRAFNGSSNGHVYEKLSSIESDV

This assay addresses cloned human NR1/NR2B ion channels (Homo sapiens (Human), UniProt Q05586+Q13224). Description: HNR2BC: effects of test articles on cloned human NR1/NR2B ion channels expressed in mammalian cells (FLIPR calcium flux). The conditions noted are these: cloned human NR1/NR2B, Table 5. In kind it is cell-based. In outline:
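Compounds were added to dye-loaded cells for 5 min with fluorescence monitored for agonism, followed by co-agonists (glutamate ~EC80, glycine 10 μM saturating) for 5 min. Cells stably expressed inducible human NR1/NR2B, and the buffer was pH 7.4. The FLIPR Ca2+ flux signal was normalized against control wells.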
`O=C(Cn1ccc2ncc(-c3ccc(F)c(C(F)(F)F)c3)cc21)NC1CC1` [Example 101, N-Cyclopropyl-2-[6-[4-fluoro-3-(trifluoromethyl)phenyl]pyrrolo[3,2-b]pyridin-1-yl]acetamide]: the IC50 was 200 nM.

`O=C(Cn1ccc2ncc(-c3cncc(C(F)(F)F)c3)cc21)N1CCC1` [Example 102, 1-(Azetidin-1-yl)-2-[6-[5-(trifluoromethyl)-3-pyridyl]pyrrolo[3,2-b]pyridin-1-yl]ethanone]: the IC50 is 398 nM.

As to `O=C(Cn1ccc2ncc(-c3ccc(F)c(F)c3)cc21)N1CCC1` [Example 103, 1-(Azetidin-1-yl)-2-[6-(3,4-difluorophenyl)pyrrolo[3,2-b]pyridin-1-yl]ethanone], the IC50 was 251 nM.

For the molecule `O=C(Cn1ccc2ncc(-c3ccc(F)c(C(F)(F)F)c3)cc21)N1CCC1` [Example 104, 1-(Azetidin-1-yl)-2-[6-[4-fluoro-3-(trifluoromethyl)phenyl]pyrrolo[3,2-b]pyridin-1-yl]ethanone], the IC50 is 31.6 nM.

For the molecule `O=C(Cn1ccc2ncc(-c3ccc(F)c(C(F)(F)F)c3)cc21)N1CCCC1` [Example 105, 2-[6-[4-Fluoro-3-(trifluoromethyl)phenyl]pyrrolo[3,2-b]pyridin-1-yl]-1-pyrrolidin-1-yl-ethanone], the IC50 is 39.8 nM.

On to `O=C(Cn1ccc2ncc(-c3ccc(F)c(C(F)(F)F)c3)cc21)N1CC(F)(F)C1` [Example 106, 1-(3,3-Difluoroazetidin-1-yl)-2-[6-[4-fluoro-3-(trifluoromethyl)phenyl]pyrrolo[3,2-b]pyridin-1-yl]ethanone], for which the IC50 is 316 nM.

For `O=C(Cn1ccc2ncc(-c3ccc(F)c(F)c3)cc21)N1CCOCC1` [Example 107, 2-[6-(3,4-Difluorophenyl)pyrrolo[3,2-b]pyridin-1-yl]-1-morpholino-ethanone], the IC50 is 158 nM.

For `O=C(Cn1ccc2ncc(-c3ccc(F)c(C(F)(F)F)c3)cc21)N1CCOCC1` [Example 108, 2-[6-[4-Fluoro-3-(trifluoromethyl)phenyl]pyrrolo[3,2-b]pyridin-1-yl]-1-morpholino-ethanone], the IC50 is 126 nM.

Take `O=C(Cn1ccc2ncc(-c3ccnc(C(F)(F)F)c3)cc21)N1CCC1` [Example 109, 1-(Azetidin-1-yl)-2-[6-[2-(trifluoromethyl)-4-pyridyl]pyrrolo[3,2-b]pyridin-1-yl]ethanone]: the IC50 is 158 nM.

Regarding `O=C(Cn1ccc2ncc(-c3ccnc(C(F)(F)F)c3)cc21)NC1CC1` [Example 110, N-Cyclopropyl-2-[6-[2-(trifluoromethyl)-4-pyridyl]pyrrolo[3,2-b]pyridin-1-yl]acetamide], the IC50 is 251 nM.

On to `O=C(Cn1ccc2ncc(-c3cccc(C(F)(F)F)n3)cc21)NC1CC1` [Example 111, N-Cyclopropyl-2-[6-[6-(trifluoromethyl)-2-pyridyl]pyrrolo[3,2-b]pyridin-1-yl]acetamide], for which the IC50 was 398 nM.

Regarding `Cc1ccc(-c2cnc3ccn(CC(=O)N4CCC4)c3c2)cn1` [Example 112, 1-(Azetidin-1-yl)-2-[6-(6-methyl-3-pyridyl)pyrrolo[3,2-b]pyridin-1-yl]ethanone], the IC50 was 501 nM.

In the case of `N#Cc1ccc(-c2cnc3ccn(CC(=O)N4CCC4)c3c2)cn1` [Example 113, 5-[1-[2-(Azetidin-1-yl)-2-oxo-ethyl]pyrrolo[3,2-b]pyridin-6-yl]pyridine-2-carbonitrile], the IC50 is 5010 nM.

As to `Fc1ccc(-c2cnc3ccn(Cc4cncnc4)c3c2)cc1F` [Example 114, 6-(3,4-Difluorophenyl)-1-(pyrimidin-5-ylmethyl)pyrrolo[3,2-b]pyridine], the IC50 is over 10000 nM.

With `Fc1cnc(Cn2ccc3ncc(-c4ccc(F)c(F)c4)cc32)nc1` [Example 115, 6-(3,4-Difluorophenyl)-1-[(5-fluoropyrimidin-2-yl)methyl]pyrrolo[3,2-b]pyridine], the IC50 was 316 nM.

For `O=C(C1CCC1)n1ccc2ncc(-c3ccc(F)c(F)c3)cc21` [Example 116, Cyclobutyl-[6-(3,4-difluorophenyl)pyrrolo[3,2-b]pyridin-1-yl]methanone], the IC50 was 794 nM.

`O=C(Cn1ccc2ncc(-c3cccc(C(F)(F)F)n3)cc21)N1CC(F)(F)C1` [Example 117, 1-(3,3-Difluoroazetidin-1-yl)-2-[6-[6-(trifluoromethyl)-2-pyridyl]pyrrolo[3,2-b]pyridin-1-yl]ethanone]: the 50% inhibitory concentration (IC50) is 5010 nM.

With `O=C(Cn1ccc2ncc(-c3ccc(F)c(F)c3F)cc21)N1CCC1` [Example 118, 1-(Azetidin-1-yl)-2-[6-(2,3,4-trifluorophenyl)pyrrolo[3,2-b]pyridin-1-yl]ethanone], the IC50 is 100 nM.

For the molecule `O=C(CC1CC1)n1ccc2ncc(-c3ccc(F)c(F)c3)cc21` [Example 119, 2-Cyclopropyl-1-[6-(3,4-difluorophenyl)pyrrolo[3,2-b]pyridin-1-yl]ethanone], the 50% inhibitory concentration (IC50) was 50.1 nM.

Turning to `O=C(Cn1ccc2ncc(-c3ccc(F)c(F)c3F)cc21)N1CCCC1` [Example 120, 1-Pyrrolidin-1-yl-2-[6-(2,3,4-trifluorophenyl)pyrrolo[3,2-b]pyridin-1-yl]ethanone], the IC50 is 631 nM.

For the molecule `O=C(Cn1ccc2ncc(-c3cc(F)cc(F)c3)cc21)N1CC(F)(F)C1` [Example 121, 1-(3,3-difluoroazetidin-1-yl)-2-[6-(3,5-difluorophenyl)pyrrolo[3,2-b]pyridin-1-yl]ethanone], the IC50 was 63.1 nM.

Turning to `O=C(Cn1ccc2ncc(-c3cc(F)cc(F)c3)cc21)N1CCCC1` [Example 122, 2-[6-(3,5-Difluorophenyl)pyrrolo[3,2-b]pyridin-1-yl]-1-pyrrolidin-1-yl-ethanone], the IC50 was 39.8 nM.

For `O=C(Cn1ccc2ncc(-c3cc(F)c(F)c(F)c3)cc21)N1CCCC1` [Example 123, 1-Pyrrolidin-1-yl-2-[6-(3,4,5-trifluorophenyl)pyrrolo[3,2-b]pyridin-1-yl]ethanone], the IC50 was 20 nM.

Turning to `O=C(Cn1ccc2ncc(-c3cc(F)c(F)c(F)c3)cc21)N1CC(F)(F)C1` [Example 124, 1-(3,3-Difluoroazetidin-1-yl)-2-[6-(3,4,5-trifluorophenyl)pyrrolo[3,2-b]pyridin-1-yl]ethanone], the IC50 is 31.6 nM.

For the molecule `O=C(Cn1ccc2ncc(-c3cc(F)cc(F)c3)cc21)N1CCOCC1` [Example 125, 2-[6-(3,5-Difluorophenyl)pyrrolo[3,2-b]pyridin-1-yl]-1-morpholino-ethanone], the IC50 was 31.6 nM.

As to `O=C(Cn1ccc2ncc(-c3ccc(F)c(F)c3F)cc21)N1CCOCC1` [Example 126, 1-Morpholino-2-[6-(2,3,4-trifluorophenyl)pyrrolo[3,2-b]pyridin-1-yl]ethanone], the IC50 is 100 nM.

Turning to `O=C(Cn1ccc2ncc(-c3cc(F)c(F)c(F)c3)cc21)N1CCOCC1` [Example 127, 1-Morpholino-2-[6-(3,4,5-trifluorophenyl)pyrrolo[3,2-b]pyridin-1-yl]ethanone], the IC50 is 158 nM.

On to `O=C(Cn1ccc2ncc(-c3ccc(F)c(F)c3)cc21)N1CC(F)C1` [Example 128, 2-[6-(3,4-Difluorophenyl)pyrrolo[3,2-b]pyridin-1-yl]-1-(3-fluoroazetidin-1-yl)ethanone], for which the IC50 was 63.1 nM.
